Reference: publication PMC5516258, “A Nonredundant Phosphopantetheinyl Transferase, PptA, Is a Novel Antifungal Target That Directs Secondary Metabolite, Siderophore, and Lysine Biosynthesis in Aspergillus fumigatus and Is Critical for Pathogenicity” (mBio, 2017)
Read-outs that look alike come from different tables or passages of the source.

How the values were obtained:
HS-PPTase (AASDHPPT) = target: T1, HS-PPTase (AASDHPPT) (Homo sapiens, UniProt Q9NRN7); test: fluorescence polarization, transfer of BODIPY-TMR-labelled phosphopantetheine from CoA to human ACP domain; format: biochemical; details: read-out: no inhibition at concentrations up to 200 μM
T1 construct: cDNA cloned into pET43.1, E. coli BL21(DE3), Ni-NTA purified
T1 sequence (Q9NRN7 1-309): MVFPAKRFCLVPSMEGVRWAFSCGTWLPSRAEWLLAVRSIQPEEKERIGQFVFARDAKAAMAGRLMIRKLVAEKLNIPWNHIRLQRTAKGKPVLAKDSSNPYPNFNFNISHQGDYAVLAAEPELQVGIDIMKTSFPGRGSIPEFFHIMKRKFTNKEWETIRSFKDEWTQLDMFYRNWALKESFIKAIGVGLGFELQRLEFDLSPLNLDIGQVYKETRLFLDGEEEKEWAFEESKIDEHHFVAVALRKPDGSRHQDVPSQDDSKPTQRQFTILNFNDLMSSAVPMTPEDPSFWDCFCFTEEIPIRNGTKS

[1] = target: T2, PptA (AFPptA; AFPptA-GST) (Aspergillus fumigatus, UniProt B0XWE4); test: fluorescence polarization, transfer of BODIPY-TMR-labelled phosphopantetheine from CoA to AarA; format: biochemical
T2 construct: gene AFUB_024520
T2 sequence (B0XWE4 entry or part of it): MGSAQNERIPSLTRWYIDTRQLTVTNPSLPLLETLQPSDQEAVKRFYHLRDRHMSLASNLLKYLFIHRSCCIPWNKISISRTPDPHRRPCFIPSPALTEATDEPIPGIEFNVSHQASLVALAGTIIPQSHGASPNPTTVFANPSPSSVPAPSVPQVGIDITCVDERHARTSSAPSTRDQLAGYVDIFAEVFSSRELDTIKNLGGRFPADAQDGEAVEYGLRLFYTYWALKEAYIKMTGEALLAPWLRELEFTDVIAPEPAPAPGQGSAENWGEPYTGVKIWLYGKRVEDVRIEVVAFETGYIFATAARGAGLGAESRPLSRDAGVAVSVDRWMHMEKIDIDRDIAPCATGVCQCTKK

Structure (SMILES)	IC50 (HS-PPTase (AASDHPPT)) [µM]	IC50 [1] [µM]	IC50 ([1]; acceptor A. fumigatus AarA 750 ng, BODIPY-TMR-CoA, 62.5 mM bis-Tris pH 6.5, 12.5 mM Mg chloride, room temperature, 100 ng PptA, triplicate, doubling dilutions from 100 µM) [µM]
O=Nc1ccc2oc(=O)ccc2c1 [6-nitroso-1,2-benzopyrone]	> 200	35.2	–
N=C1Sc2ccccc2C2=NCCCN12 [PD 404,182]	–	3.9	–
Clc1ccc(C(c2ccc(Cl)cc2)n2cc[n+](CC(OCc3ccc(Cl)cc3Cl)c3ccc(Cl)cc3Cl)c2)cc1 (stereo not shown) [calmidazolium chloride]	–	–	19.2
